Source: patent US10960004B2, “Method for treating cancer patients with severe renal impairment” (TAIHO PHARMACEUTICAL CO., LTD., priority 2016, dated 2021)
Read-outs that look alike come from different tables or passages of the source.

Test: Pharmacokinetics of FTD and TPI in plasma of solid cancer patients given FTD/TPI combination drug, by renal function cohort
Type: in vivo, human
Settings: for CL/F / Cmax / half-life / AUC(0-t): 35 mg/m^2 per once as FTD, oral, twice a day, plasma, mean; for Cmax / half-life / AUC(0-t): human, po; for AUC(0-t): read-out: AUC0-12; for AUC0-12 higher as compared to patients with normal renal function: after repeated administrations, 35 mg/m^2
Protocol: Pharmacokinetic of FTD was studied in patients with solid cancer including colorectal cancer, when performing a treatment of repeating an administration schedule of orally administering an FTD/TPI combination drug (mixture of FTD and TPI in a molar ratio of 1:0.5) in 35 mg/m^2 per once (as FTD, the same applies hereinafter) for 5 consecutive days twice a day, followed by rest for 2 days twice, followed by rest for 14 days, and repeating this procedure as one cycle. […] Blood collection was performed after administration of the FTD/TPI combination drug on Day 1 and Day 12, at predose and at 0.5, 1, 2, 4, 6, 8, 10, 12 hours after administration, and FTD and TPI concentrations in plasma were measured. Pharmacokinetic parameters of FTD and TPI were calculated using the resulting concentrations in the plasma, and the results were shown in Table 1.

[1] = Day 1, Cohort 0: normal renal function
[2] = Day 1, Cohort 1: mild renal impairment (CLcr 60 to 89 mL/min)
[3] = Day 1, Cohort 2: moderate renal impairment (CLcr 30 to 59 mL/min)
[4] = Day 12, Cohort 0: normal renal function
[5] = Day 12, Cohort 1: mild renal impairment (CLcr 60 to 89 mL/min)
[6] = Day 12, Cohort 2: moderate renal impairment (CLcr 30 to 59 mL/min)
[7] = 35 mg/m2, Day 1, Cohort 0: normal renal function
[8] = 35 mg/m2, Day 1, Cohort 1: mild renal impairment (CLcr 60 to 89 mL/min)
[9] = 35 mg/m2, Day 1, Cohort 2: moderate renal impairment (CLcr 30 to 59 mL/min)
[10] = 35 mg/m2, Day 12, Cohort 0: normal renal function
[11] = 35 mg/m2, Day 12, Cohort 1: mild renal impairment (CLcr 60 to 89 mL/min)
[12] = 35 mg/m2, Day 12, Cohort 2: moderate renal impairment (CLcr 30 to 59 mL/min)

Compound	CL/F [1] [L/h]	CL/F [2] [L/h]	CL/F [3] [L/h]	CL/F [4] [L/h]	CL/F [5] [L/h]	CL/F [6] [L/h]	Cmax [7] [ng/mL]	half-life [7] [h]	AUC(0-t) [7] [ng·h/mL]	Cmax [8] [ng/mL]	half-life [8] [h]	AUC(0-t) [8] [ng·h/mL]	Cmax [9] [ng/mL]	half-life [9] [h]	AUC(0-t) [9] [ng·h/mL]	Cmax [10] [ng/mL]	half-life [10] [h]	AUC(0-t) [10] [ng·h/mL]	Cmax [11] [ng/mL]	half-life [11] [h]	also measured
O=c1[nH]c(=O)n([C@H]2C[C@H](O)[C@@H](CO)O2)cc1C(F)(F)F [FTD, α,α,α-trifluorothymidine]	8.72	10.08	9.17	3.29	4.1	2.1	2880	1.26	7870	3160	1.79	7290	2760	1.9	8140	5240	2.09	20100	4670	2.4	AUC(0-t) [11]: 23400 ng·h/mL; Cmax [12]: 6010 ng/mL; half-life [12]: 3.22 h; AUC(0-t) [12]: 30400 ng·h/mL; AUC0-12 higher as compared to patients with normal renal function (patients with mild renal impairment (Cohort 1)): about 16%; AUC0-12 higher as compared to patients with normal renal function (patients with moderate renal impairment (Cohort 2)): about 51%
Cl.N=C1CCCN1Cc1[nH]c(=O)[nH]c(=O)c1Cl [TPI, 5-chloro-6-[(2-iminopyrrolidine-1-yl)methyl]pyrimidine-2,4(1H,3H)-dione hydrochloride]	148.5	105.1	64.8	128.3	83.1	62	46.5	2.04	234	93.9	2.33	380	100	2.42	494	48.8	2.61	247	67.8	2.54	AUC(0-t) [11]: 383 ng·h/mL; Cmax [12]: 112 ng/mL; half-life [12]: 2.63 h; AUC(0-t) [12]: 602 ng·h/mL
